# Measured values taken from patent US8435969B2, “Method and compositions for treating hematological malignancies” (Gilead Sciences, Inc., priority 2006, dated 2013).
# Tests used:
# [1] = Storage stability in aqueous solution; type: physicochemical; conditions: 60 hours
# Excerpt: Parenteral (sterile aqueous) solutions of the organic acid salts of compound 1 optionally comprise a stabilizing amount of carbohydrate, typically a saccharide (mono, di or polysaccharides), glycoside or sugar alcohol (alditols). Polysaccharides should be biodegradable upon parenteral injection or infusion and include dextrins and starches, typically 3-10 units. Representative carbohydrates include hexoses, aldoses, aldohexoses, aldotrioses (e.g. glyceraldehyde), aldotetroses (e.g. erythrose), aldopentoses (e.g. arabinose), ketoses, ketohexose (e.g. fructose), ketopentoses (e.g. ribulose), maltose, sucrose, lactose, ribose, xylose, lyxose, allose, altrose, glucose, mannose, gulose, idose, galactose and talose. Of particular interest are carbohydrates conventionally used in parenteral formulations, e.g., mannitol or dextrose. The optical character of the carbohydrate is not critical, but it is desirable for the configuration to be such that the carbohydrate is biodegradable upon parenteral administration. […] On the other hand, storage in buffered solutions at pH 2, 7 and 9 under the same conditions lead to substantial degradation of compound 1: About 100%,18% and 76% by weight, respectively.
# [2] = Solubility of the succinate salt; type: physicochemical; conditions: pH 4.2-4.7
# [3] = dog, in vivo, iv, 0.2 mg/kg
# Method: Distribution of Prodrugs between PBMCs and Plasma in Dogs • Dogs were administered various prodrugs of cpr-PMEDAP as 0.2 mg/kg 30 minute IV infusions. […] Alanine was the L isomer. • Blood was collected into potassium EDTA and separated by centrifugation. Primary blood mononuclear cells (PBMCs) were collected using CPT tubes (sodium citrate). • For analysis, plasma samples were precipitated by addition of 100 μL acetonitirile containing internal standards (D4AP and TDF) to 100 μL of plasma for prodrug analysis. After protein precipitation by centrifugation, 100 μA was transferred into another tube to be dried and then reconstituted in 100 μL water with 0.2% formic acid. An aliquot of 20 μL was injected onto the column for LC/MS/MS analysis. Analysis was done using a 150×2.0 mm, 4 μm Synergi Fusion-RP 80A column (Phenomenex) and a multistage linear gradient from 0.5 to 99% acetonitrile in the presence of 0.2% formic acid at 0.25 mL/min. Analytes were detected using a Sciex API-4000 mass spectrometer using electrospray ionization in positive MRM mode. […] Separate aliquots of cells from each time point resuspended in 100% serum were used to establish the cell quantities in each sample. Cell samples were normalized to 15×10^6 cells per sample. Varying degrees of hemolyses have been observed. […] 20 μL was injected for LC/MS/MS analysis using a 50×2.0 mm, 4 μm Synergi Hydro-RP 80A column (Phenomenex) and a multistage linear gradient from 0 to 95% acetonitrile in the presence of 0.2% formic acid at 1.0 mL/min. Analytes were detected using a Sciex API-4000 mass spectrometer using electrospray ionization in positive MRM mode. • After drying, samples for dephosphorylation were treated with 1 U of calf intestinal phosphatase (alkaline phosphatase, Sigma) for 2 h in manufacturer provided buffer. Samples were then adjusted to 60% acetonitrile dried and resuspended in 60% acetonitrile containing internal standards (TDF and D4AP) and analyzed for cpr-PMEDAP as described for direct PBMC analysis.
# Hygroscopicity = type: physicochemical; conditions: solid form
structure (smiles),measurement,setting,value
CCOC(=O)[C@H](C)NP(=O)(COCCn1cnc2c(NC3CC3)nc(N)nc21)N[C@@H](C)C(=O)OCC [compound 1 succinate],Degradation on storage,"[1]; 5% dextrose (by weight of solution; pH about 4.2, unbuffered), 40° C.",without significant degradation
same,Degradation on storage,"[1]; buffered solution pH 2, 40° C.",About 100 % by weight
same,Degradation on storage,"[1]; buffered solution pH 9, 40° C.",~76 % by weight
same,solubility,[2],> 39 mg/mL
CC(C)OC(=O)[C@H](C)NP(=O)(COCCn1cnc2c(NC3CC3)nc(N)nc21)Oc1ccccc1 (stereo partly drawn) [MonoAlaiPr],PBMC to Plasma ratio,[3],17
"C[C@H](NP(=O)(COCCn1cnc2c(NC3CC3)nc(N)nc21)Oc1ccccc1)C(=O)OC(C)(C)C (single isomer, unassigned) [MonoAlatBu(A)]",PBMC to Plasma ratio,[3],19
CCOC(=O)C(C)NP(=O)(COCCn1cnc2c(NC3CC3)nc(N)nc21)NC(C)C(=O)OCC (stereo not drawn) [Compound 1],Hygroscopicity,Hygroscopicity,hygroscopic
C[C@H](NP(=O)(COCCn1cnc2c(NC3CC3)nc(N)nc21)Oc1ccccc1)C(=O)OC(C)(C)C (stereo partly drawn) [MonoAlatBu],PBMC to Plasma ratio,[3],12
CC(C)OC(=O)[C@H](C)NP(=O)(COCCn1cnc2c(NC3CC3)nc(N)nc21)N[C@@H](C)C(=O)OC(C)C [BisAlaiPr],PBMC to Plasma ratio,[3],1.2
